Measurements published in patent publication US20210403415A1, “COMPOUNDS AND METHODS TO ATTENUATE TUMOR PROGRESSION AND METASTASIS” (THE TRUSTEES OF INDIANA UNIVERSITY, priority 2018, published 2021).
Read-outs that look alike come from different tables or passages of the source. Each block holds one compound with its values, some of them ahead of it.

Assays:
TEAD4.Yap1 interaction [1] = molecular target: T1, TEAD4.Yap1 interaction (Homo sapiens, UniProt Q15561); experiment: Fluorescence polarization, GST-TEAD4 with FAM-Yap60-99 peptide; assay type: binding; design: TEAD4 (217-434), TEAD4 (217-434) Cys367Ser mutant and Yap1 (Full-length) were expressed as GST-fusion proteins; made in house; host or cells: E. coli BL-21 (DE3), pGEX-6P-1; conditions: for inhibition / maximum inhibition of TEAD4.Yap1 interaction: 24 h incubation at 4° C.; for t1/2^∞ (half-life of inactivation): corresponding to kinact; for inhibition of TEAD4.Yap1 interaction: FP assay, 24 h at 4° C.
Protocol: (§1) GST-TEAD4, GST-TEAD4 Cys367Ser mutant or HIS-TEAD2 interaction with Yap1 was investigated using a fluorescently-labeled peptide (FAM-Yap60-99), consisting of FAM-labeled TEAD-binding peptide fragment of Yap1 (FAM-[…] TVPMCLRKLPASFCKPP), which has a disulfide bridge (American Peptide, Sunnyvale, Calif.). Addition of FAM-Yap60-99 to the TEAD was followed by measurement of changes in polarization. 40 μL of 125 nM GST-TEAD4 WT or GST-TEAD4 Cys367Ser in assay buffer (PBS with 0.01% v/v Triton-X100) or 40 μL of 64 nM HIS-TEAD2 was added to a 384-well black polystyrene plate (Cat. No. 262260; Nunc, Roskilde, Denmark) and incubated with 5 μL of […] serially diluted compounds in assay buffer supplemented with 20% v/v DMSO for 24 h at 4° C. Finally, 5 μL of 160 nM FAM-Yap60-99 peptide was added, the plate centrifuged, and the polarization was measured on an Envision Multilabel Plate Reader (PerkinElmer, Waltham, Mass.) using a filter set with excitation and emission wavelengths of 485 and 535 nm, respectively. Percent inhibition was calculated as relative to a minimum inhibition control, which is without compound, and a maximum inhibition control, which is without a TEAD.
For the determination of the inhibition efficiency kinact/K1, the protein compound incubation time was varied between […], prior to the addition of the FAM-Yap60-99 peptide and fluorescence polarization measurements. The progressive decrease in TEAD activities were plotted against time for all 10 concentrations ([…]) of the compounds and the observed rate of inhibition (kobs) was calculated by fitting a simple exponential function.
The observed rate of inhibition was then plotted against the concentration of the compound and a […] function kobs=kinact[Inhibitor]/K1+[Inhibitor] was fitted to determine the kinact and K1 values.

TEAD4 [2] = molecular target: T2, TEAD4 (Homo sapiens, UniProt Q15561); experiment: Whole protein ESI mass spectrometry, adduct formation; assay type: binding; design: TEAD4 (217-434), TEAD4 (217-434) Cys367Ser mutant and Yap1 (Full-length) were expressed as GST-fusion proteins; GST (N, cleaved yes); made in house; host or cells: E. coli BL-21 (DE3), pGEX-6P-1; conditions: for covalent adduct formation with TEAD4 / adduct with TEAD4: 10 μM TEAD4, 200 μM compound, 24 h at 4° C.
Protocol: (§2) The samples were centrifuged at 20,000×g for […] to remove precipitants before being injected into an empty column on an Agilent 1200 liquid chromatography system (Agilent, Santa Clara, Calif.), using 80% Buffer A (H2O, 5 mM NH4OAc) and 20% Buffer B (ACN, 5 mM NH4OAc), and the masses were detected on an Agilent 6520 Accurate Mass Q-TOF.
It was determined whether a covalent bond formed between inventive compounds and TEAD4. […] The covalent adduct formation by compound 2 was relatively fast (FIG. 3G), reaching nearly 100% adduct formation after 30 min incubation with TEAD4. Because the rate of inhibition developed over a longer timescale (FIG. 3C), compound 2 is proposed to induce a slow conformational change in TEAD4 that prevents its interaction with Yap1. To rule out the possibility that compound 2 induces slow aggregation of TEAD4, and not the proposed slow conformational change, GST-TEAD4 was incubated with DMSO compound 2 for 24 h at 4° C., followed by injection into an SEC column (FIG. 3H). […] A slight increase in dimer formation for the TEAD4 sample incubated with compound 2 occurred compared to the sample incubated with DMSO. […] Furthermore, it is highly unlikely that Cys-367 oxidation was responsible for the lack of 100% inhibition at longer times since it has been shown that covalent bond formation is rapid and complete within less than an hour.
Target sequence in this assay (Q15561 217-434): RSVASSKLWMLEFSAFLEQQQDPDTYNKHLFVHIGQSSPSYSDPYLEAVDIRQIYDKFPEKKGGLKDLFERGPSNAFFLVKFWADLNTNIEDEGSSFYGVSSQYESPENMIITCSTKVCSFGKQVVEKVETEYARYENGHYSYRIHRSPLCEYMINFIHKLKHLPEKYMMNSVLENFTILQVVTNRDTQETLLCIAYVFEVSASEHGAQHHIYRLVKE

TEAD2 binding to Yap1 = molecular target: T3, TEAD2 binding to Yap1 (Homo sapiens, UniProt Q15562); experiment: Fluorescence polarization, HIS-TEAD2 with FAM-Yap60-99 peptide; conditions: 24 h at 4° C.
T3 construct: TEAD2 (217-447) was expressed as N-terminal HIS-fusion protein; made in house; host or cells: E. coli BL-21 (DE3), pET-28a
Protocol: as §1

TEAD4.Yap1 interaction [3] = molecular target: T1, TEAD4.Yap1 interaction; experiment: Fluorescence polarization, GST-TEAD4 with FAM-Yap60-99 peptide; assay type: binding; design: TEAD4 (217-434), TEAD4 (217-434) Cys367Ser mutant and Yap1 (Full-length) were expressed as GST-fusion proteins; made in house; host or cells: E. coli BL-21 (DE3), pGEX-6P-1; conditions: 0.5, 6, 24, 48 h incubation at 4° C., 0.1-100 μM
TEAD4 [4] = molecular target: T2, TEAD4; experiment: Covalent streptavidin pull down of myc-TEAD4 from HEK293 cell lysates; assay type: cell-based; design: expressed in transfected cells; host or cells: HEK293; conditions: added to cell lysates
Protocol: HEK293 cells transfected with the myc-TEAD4 construct were grown for 48 h and then treated with DMSO or with 25 μM of compound 2 for an additional 48 h. Cells were then harvested in lysis buffer (50 mM Tris-HCl, pH 7.3, 150 mM NaCl, 0.5 mM EDTA, 1% Triton X-100, PhosSTOP phosphatase inhibitor cocktail, and EDTA-free protease inhibitors cocktail). Cell lysates containing 2 mg of protein were incubated with the indicated compounds or DMSO for 24 h. Extracts were then incubated with Dynabeads M-280 Streptavidin (Sigma-Aldrich) for 2 h at 4° C. Dynabeads were then washed and bound proteins were denatured and eluted according to the manufacturer's instructions. Relative levels of myc-TEAD4 from each complex were measured by immunoblot analysis with the anti-c-Myc antibody (1:5,000, Sigma-Aldrich).
Target sequence in this assay (Q15561 whole entry, the tested form may be a part): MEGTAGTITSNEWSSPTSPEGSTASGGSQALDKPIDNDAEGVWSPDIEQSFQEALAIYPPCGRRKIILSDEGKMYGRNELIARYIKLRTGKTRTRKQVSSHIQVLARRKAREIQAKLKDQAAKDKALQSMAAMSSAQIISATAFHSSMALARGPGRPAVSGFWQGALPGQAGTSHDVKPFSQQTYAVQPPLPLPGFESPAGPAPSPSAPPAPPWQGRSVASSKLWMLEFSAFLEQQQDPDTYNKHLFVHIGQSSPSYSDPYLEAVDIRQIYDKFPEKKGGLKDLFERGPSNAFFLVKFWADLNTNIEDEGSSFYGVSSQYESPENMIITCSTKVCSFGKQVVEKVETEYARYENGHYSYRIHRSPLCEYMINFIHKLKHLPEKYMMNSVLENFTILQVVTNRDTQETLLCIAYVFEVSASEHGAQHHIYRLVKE

[5] = test system: patient-derived GBM43 glioblastoma spheroids; experiment: GBM43 spheroid viability (Alamar blue); assay type: cell-based, human; conditions: Homo sapiens; three-dimensional spheroids; read-out: EC50, inhibition of GBM43 spheroid growth
Protocol: Early-passage GBM43 cells were cultured in ultralow adherence plates (Corning Inc.) at 1 to 2×10^3 cells/mL in DMEM supplemented with 1% […] (Invitrogen), 2% B27 (Invitrogen), 25 ng/mL epidermal growth factor (EGF, 25 ng/mL fibroblast growth factor (FGF) (R&D Systems, Inc.), […], 2 ng/mL platelet growth factor, and 100 ng/mL each of penicillin and streptomycin (Invitrogen Inc.). Individual cells were recovered from spheres by incubation with Accutase (Sigma-Aldrich) for 10-15 minutes. Cells (50-100/well) were then seeded in fresh sphere-forming media in 96-well plates. After 2-3 days, Neurospheres containing 6 to 8 cells were treated with compounds 1, 2, and 5.
HEK-293 were cultured in DMEM with glutamine (Cellgro, Manassas, Va.) supplemented with 10% FBS and 1% penicillin/streptomycin in a 5% CO2 atmosphere at 37° C. Tumors were expanded by passage in the flank of NOD/SCIDγnull mice. To generate GBM43 cell lines, tumors were harvested, disaggregated, and maintained in 2.5% FBS for 14 days on Matrigel-coated plates (BD Biosciences) to remove murine fibroblasts. In-vitro GBM43 cell lines were propagated in DMEM with 10% FBS for no more than 7 passages. Cell line identity was confirmed by DNA fingerprint analysis (IDEXX BioResearch) for species and baseline short-tandem repeat analysis testing. GBM43 spheroids were generated by plating early-passage cells at 2.5×10^4 cells per well in 96-well ultralow attachment plates (Corning Inc.) in DMEM/F12 (1:1; GIBCO) supplemented with 2% B27 supplement (GIBCO), 20 ng/mL epidermal growth factor (EGF), and 20 ng/mL fibroblast growth factor (FGF) (Peprotech) for 2 days. The spheroids were then treated with compounds 1, 2, and 5 and growth analyzed by Alamar blue staining.

TEAD4 Cys367Ser mutant = molecular target: T4, TEAD4 Cys367Ser mutant (Homo sapiens, UniProt Q15561, C367S); experiment: Whole protein ESI mass spectrometry, adduct formation with mutant; assay type: binding; conditions: 5 μM mutant, 12.5, 50, 200 μM at 4° C., 24 h
T4 construct: TEAD4 (217-434) Cys367Ser mutant and Yap1 (Full-length) were expressed as GST-fusion proteins; made in house; host or cells: E. coli BL-21 (DE3), pGEX-6P-1
Protocol: as §2
FIG. 4A illustrates analysis by ESI mass spectrometry after 10 μM TEAD4 Cys367Ser mutant was incubated with 200 μM compound for 24 h at 4° C. FIG. 4B illustrates measurement of fluorescence polarization due to binding when increasing concentration of TEAD4 Cys367Ser mutant was mixed with 16 nM FAM-Yap60-99 peptide (mean±s.d.; n=3). FIG. 4C illustrates measurement of fluorescence polarization due to binding when TEAD4 Cys367Ser mutant was incubated with increasing concentration of compounds for 24 h at 4° C. followed by addition of FAM-Yap60-99 (mean±s.d.; n=3).

[6] = as tested described herein, read-out: EC50 in the EC50 assay

T1 sequence (Q15561 217-434): as the sequence (Q15561 217-434) above
T3 sequence (Q15562 217-447): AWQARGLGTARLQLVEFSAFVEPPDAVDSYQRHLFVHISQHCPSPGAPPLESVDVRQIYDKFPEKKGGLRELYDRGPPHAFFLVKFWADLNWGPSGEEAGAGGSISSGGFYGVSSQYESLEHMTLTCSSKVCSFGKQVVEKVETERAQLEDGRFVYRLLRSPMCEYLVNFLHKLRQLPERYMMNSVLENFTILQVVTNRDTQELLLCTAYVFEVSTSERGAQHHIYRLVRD
T4 sequence (Q15561 217-434 C367S): as the sequence (Q15561 217-434) above, with C151S counted along it

inhibition / maximum inhibition of TEAD4.Yap1 interaction (TEAD4.Yap1 interaction [1]): 31%
t1/2^∞ (half-life of inactivation) (TEAD4.Yap1 interaction [1]): 67.3 h
covalent adduct formation with TEAD4 (TEAD4 [2]): formed single adducts
kinact (TEAD4.Yap1 interaction [3]; read-out: maximum rate of inactivation (kinact) (converted)): 2.78e-06 s⁻¹
SMILES: COCCOc1cccc(Nc2ccccc2C(=O)CCl)c1 [Compound 4, 2-chloro-1-(2-((3-(2-methoxyethoxy)phenyl)amino)phenyl)ethanone]
apparent EC50, inhibition of TEAD4.Yap1 protein-protein interaction (TEAD4.Yap1 interaction [1]; 24 h incubation with TEAD4 at 4° C.): substantially lower (nearly an order of magnitude) than its parent compound 2
inhibition of TEAD2 binding to Yap1 (TEAD2 binding to Yap1): much weaker inhibitors of TEAD2 compared to TEAD4

inhibition / maximum inhibition of TEAD4.Yap1 interaction (TEAD4.Yap1 interaction [1]): 51%
EC50 (TEAD4.Yap1 interaction [1]; 24 h incubation with TEAD4 at 4° C., read-out: apparent EC50, inhibition of TEAD4.Yap1 protein-protein interaction): 2.3 ± 0.8 µM
t1/2^∞ (half-life of inactivation) (TEAD4.Yap1 interaction [1]): 20 h
covalent adduct formation with TEAD4 (TEAD4 [2]): formed single adducts
kinact (TEAD4.Yap1 interaction [3]; read-out: rate of inactivation kinact (converted)): 9.44e-06 s⁻¹
SMILES: COc1ccc(C(=O)CCl)c(Nc2cccc(C(F)(F)F)c2)c1 [Compound 6, 2-chloro-1-(4-methoxy-2-((3-(trifluoromethyl)phenyl)amino)phenyl)ethanone]
inhibition of TEAD2 binding to Yap1 (TEAD2 binding to Yap1): much weaker inhibitors of TEAD2 compared to TEAD4

inhibition of TEAD4.Yap1 interaction (TEAD4.Yap1 interaction [1]): lack of TEAD4 inhibition
adduct with TEAD4 (TEAD4 [2]): 100%
covalent adduct formation with TEAD4 (TEAD4 [2]): formed single adducts
SMILES: O=C(CCl)c1ccccc1Nc1ccc(-c2cccs2)cc1 [Compound 7, 2-chloro-1-(2-((4-(thiophen-2-yl)phenyl)amino)phenyl)ethanone]

inhibition of TEAD4.Yap1 interaction (TEAD4.Yap1 interaction [1]): lack of TEAD4 inhibition
adduct with TEAD4 (TEAD4 [2]): 100%
covalent adduct formation with TEAD4 (TEAD4 [2]): formed single adducts
SMILES: O=C(CCl)c1ccccc1Nc1cccc(-c2cccs2)c1 [Compound 8, 2-chloro-1-(2-((3-(thiophen-2-yl)phenyl)amino)phenyl)ethanone]

TEAD4 in streptavidin pull-down, immunoblot (TEAD4 [4]): TEAD4 was specifically detected
SMILES: O=C(CCCCC1SCC2NC(=O)NC21)NCCOCCOCCCCCOc1cccc(Nc2ccccc2C(=O)CCl)c1 (stereo not shown) [Compound 9, N-(2-(2-((5-(3-((2-(2-chloroacetyl)phenyl)amino)phenoxy)pentyl)oxy)ethoxy)ethyl)-5-(2-oxohexahydro-1H-thieno[3,4-d]imidazol-4-yl)pentanamide]

inhibition of TEAD4.Yap1 interaction (TEAD4.Yap1 interaction [1]): minimal inhibition
SMILES: O=C(CF)c1ccccc1Nc1cccc(C(F)(F)F)c1 [Example 10, 2-fluoro-1-(2-((3-(trifluoromethyl)phenyl)amino)phenyl) ethanone]

max (inhibition) in the EC50 assay (TEAD4.Yap1 interaction [1]; as tested described herein): 50%
EC50 (TEAD4.Yap1 interaction [1]; [6]): 11.7 µM
SMILES: O=C(CCl)Nc1ccccc1Nc1cccc(C(F)(F)F)c1 [Example 11, 2-chloro-N-(2-((3-(trifluoromethyl)phenyl)amino)phenyl) acetamide]

max (inhibition) in the EC50 assay (TEAD4.Yap1 interaction [1]; as tested described herein): 23%
EC50 (TEAD4.Yap1 interaction [1]; [6]): 13.7 µM
SMILES: C=CC(=O)Nc1ccccc1Nc1cccc(C(F)(F)F)c1 [Example 12]

EC50 [5]: 244 ± 24 µM
SMILES: Cn1nnc2c(C(N)=O)ncn2c1=O [Temozolomide, temozolomide, reference compound]

SMILES: NC(=O)CI [iodoacetamide, reference compound]
inhibition of TEAD4.Yap1 interaction (TEAD4.Yap1 interaction [1]): unable to inhibit
adduct formation with TEAD4 (TEAD4 [2]; 5 μM TEAD4, 12.5, 50, 200 μM at 4° C., after 6 h): modified by a single adduct
modification of TEAD4 Cys367Ser mutant (TEAD4 Cys367Ser mutant): no modification of the protein, except for a small adduct that was detected only at 200 μM
